Test results published in US20030040531A1, “Remedies for reperfusion injury containing integrin alphanubeta 3 antagonist” (priority 2000, published 2003).
Where two headings read alike, the source gives them in different places.

Experiments:
[1] = system: dog vascular smooth muscle cells; test: adhesion of dog vascular smooth muscle cells to bovine vitronectin; assay type: cell-based; conditions: Canis lupus familiaris, read-out: concentration (IC50) necessary for inhibition of adhesion to vitronectin
Method: (§1) The adhesion of vascular smooth muscle cells to immobilized human vitronectin was measured in accordance with the method of Liaw et al. (L. Liaw et al., Circ. Res., 74, 214 (1994)). A Dulbecco's phosphate buffer (Dulbecco's PBS(−)) solution of human serum-derived vitronectin adjusted to a concentration of 4 μg/ml was first added to wells (50 μl/well) of a microplate (Maxisorp), and a reaction for immobilization was allowed to proceed at 4° C. overnight. After washing twice with 150 μl of Dulbecco's PBS (−), Dulbecco's PBS (−) containing 10 mg/ml of bovine serum albumin was added, followed by blocking at 37° C. for one hr. The microplate was then washed twice with 150 μl of Dulbecco's PBS (−) to prepare an assay plate.
(§2) Next, 50 μl of a Dulbecco's modified Eagle's basal medium containing 20 mg/ml of bovine serum albumin with a medicament added thereto was added to the wells of the human vitronectin-coated assay microplate, followed by pre-cultivation under 5% carbon dioxide at 37° C. for 10 min. Thereafter, 50 μl of the Dulbecco's modified Eagle's basal medium with human vascular smooth muscle cells suspended therein was added thereto, and the plate was thoroughly stirred. A reaction was allowed to proceed under 5% carbon dioxide at 37° C. for 90 min. The reaction solution containing non-adherent cells was then removed, followed by washing three times with Dulbecco's PBS (−). For the adhered cells, 100 μl of Dulbecco's PBS (−) containing 4% paraformaldehyde was added, and immobilization was allowed to proceed at room temperature for 10 min. Next, 100 μl of a Dulbecco's PBS (−) containing 0.5% Toluidine Blue and 4% paraformaldehyde was added, and staining was allowed to proceed at room temperature for 5 min, followed by thorough washing with distilled water. The inside of the wells was then air-dried, and 1% aqueous sodium dodecylsulfate solution was then added to perform cytolysis. The absorbance of the microplate thus obtained was measured at 595 nm. […] The inhibition was calculated by the following equation. IC50 was determined from a primary regression line of the logarithm of each concentration of the test compound and the logarithm of (100−inhibition)/inhibition. [formula]
Rat vascular smooth muscle cells were cultivated in a medium composed of a mixture of equal amounts of 15% fetal calf serum-containing 199 medium and RPMI 1640 medium. Separately, hamster and dog vascular smooth muscle cells were cultivated in a 10% fetal calf serum-containing Dulbecco's modified Eagle's basal medium. These cultivated cells were then suspended in a Dulbecco's modified Eagle's basal medium to concentrations of 3×10^5 cells/ml (rat), 3×10^5 cells/ml (hamster), and 4×10^5 cells /ml (dog), respectively. Rat vitronectin was used in the adhesion system of rats and hamsters, while bovine vitronectin was used in the adhesion system of dogs.

[2] = system: human vascular smooth muscle cells; test: adhesion of human vascular smooth muscle cells to immobilized human vitronectin; assay type: cell-based; conditions: read-out: concentration (IC50) necessary for inhibition of adhesion to vitronectin
Method: as §1
Separately, human vascular smooth muscle cells cultivated at 37° C. under 5% carbon dioxide in a medium for vascular smooth muscle cells were separated using a Dulbecco's PBS (−) containing trypsin-EDTA, were washed with Dulbecco's PBS (−), and were then suspended in a Dulbecco's modified Eagle's basal medium to a concentration of 2×10^5/ml.
as §2

U937 cells = test: adhesion of human monocytes (U937 cells) to human activated vascular endothelial cells; assay type: cell-based; conditions: average on three wells±SD, control group 4522±1027
Method: The adhesion of human monocytes to vascular endothelial cells was measured with reference to the method of Murphy et al. (J. F. Murphy et al., Biochem. J. 304, 537 (1994)). Human funicular venoendothelial cells (4×10^4/well), which had been cultivated in a type-I collagen-coated flask containing a 199 medium containing an endothelial cell growth factor (15 μg/ml), heparin (5 U/ml), and 20% fetal calf serum, were cultivated using a type-I collagen-coated microplate in the above medium under 5% carbon dioxide at 37° C. for 2 days to prepare a layer of vascular endothelial cells. The layer of vascular endothelial cells was washed with PBS (−) and was then cultivated in PBS (−) containing 1 U/ml bovine thrombin, 5 mM CaCl2, and 5 mM MgCl2 for 5 min, followed -by washing with PBS(−) containing 10^-6 M D-phenylalanyl-L-prolyl-L-argininechloromethane and with PBS(−).
Next, U937 cells, which had been cultivated in an RPMI 1640 medium containing 10% fetal calf serum, were cultivated in the above medium containing 6 μM 2′,7′-bis(carboxyethyl)carboxyfluorescein tetraacetoxymethyl ester under 5% carbon dioxide at 37° C. for one hr, were washed with PBS (−), and were subjected to fluorescent labeling. The labeled U937 cells (2×10^5/well), the medicament, and 100 μl of an RPMI 1640 medium containing 1% fetal calf serum were added onto the layer of vascular endothelial cells, and an adhesion reaction was allowed to proceed under 5% carbon dioxide at 37° C. for 10 min. Next, nonadherent cells were removed, and 50 mM Tris HCl (pH 8.4) containing 0.1% sodium dodecylsulfate was added to elute the fluorescent dye, followed by fluorometry (excitation wavelength 485 nm, measurement wavelength 530 nm).

[3] = system: rat peritoneal cavity macrophage
Method: A Dulbecco's phosphate buffer (PBS (−)) solution of rat serum-derived vitronectin adjusted to a concentration of 5 μg/ml was first added to wells (50 μl/well) of a microplate (Maxisorp), and a reaction for immobilization was allowed to proceed at 4° C. overnight. After washing twice with 150 μl of PBS (−), PBS (−) containing 10 mg/ml of bovine serum albumin was added, followed by blocking at 37° C. for one hr. The microplate was then washed twice with 150 μl of PBS (−) to prepare an assay plate.
Rat peritoneal cavity macrophage was collected after the induction of thioglycolate into the peritoneal cavity. Specifically, a 3% thioglycolate medium was intraperitoneally administered into Wistar male rats (300 to 400 g) at a dose of 100 ml/kg, and, four days after the administration, intraperitoneal fluid and cold PBS (−) (100 ml/kg) injected into the peritoneal cavity were withdrawn to collect macrophage. The macrophage was isolated by removing nonadherent cells. Specifically, the cells collected from the peritoneal cavity were washed twice with PBS (−) and were then cultivated in a Dulbecco's modified Eagle's basal medium containing 0.1% bovine serum albumin under 5% carbon dioxide for 30 min to perform adhesion of macrophage. Next, nonadherent cells were removed, followed by washing with PBS (−). Thereafter, macrophage was collected with a cell scraper. The collected rat macrophage was washed twice with PBS (−) and was then suspended in a Dulbecco's modified Eagle's basal medium to a concentration of 8×10^5/ml. Next, 50 μl of a Dulbecco's modified Eagle's basal medium containing 0.2% bovine serum albumin with a medicament added thereto was added to the wells of the vitronectin-coated assay microplate, followed by pre-cultivation under 5% carbon dioxide at 37° C. for 10 min. Thereafter, 50 μl of the Dulbecco's modified Eagle's basal medium with macrophage suspended therein was added thereto, and the plate was thoroughly stirred. A reaction was allowed to proceed under 5% carbon dioxide at 37° C. for 10 min. […] The absorbance of the microplate thus obtained was measured at 595 nm.

O=C(NCC(NS(=O)(=O)c1ccccc1)C(=O)O)c1ccc(N2CCC(NC3=NCCCN3)CC2)c(F)c1 (stereo in doubt) [formula (IV), (2S)-Benzenesulfonylamino-3-[3-fluoro-4-{4-(1,4,5,6-tetrahydropyrimidin-2-ylamino)-piperidin-1-yl}benzoylamino]propionic Acid]
IC50 [1]: 26 nM | IC50 [2]: 37 nM | fluorescence intensity (adhered U937 cells) (U937 cells; 10^-6 M): 3710+969 arbitrary unit | fluorescence intensity (adhered U937 cells) (U937 cells; 10^-7 M): 4389+640 arbitrary unit | fluorescence intensity (adhered U937 cells) (U937 cells; 10^−4 M): -34+74 arbitrary unit | fluorescence intensity (adhered U937 cells) (U937 cells; 10^−5 M): 1968±187 arbitrary unit | fluorescence intensity (adhered rat macrophage) ([3]; 0.1 µM): 0.086±0.069 arbitrary unit | fluorescence intensity (adhered rat macrophage) ([3]; 1 µM): 0.031 +0.037 arbitrary unit | fluorescence intensity (adhered rat macrophage) ([3]; 10 µM): 0.012 +0.038 arbitrary unit
